Results reported in US20080280890A1, “HYDROXYLAMINE COMPOUNDS AND METHODS OF THEIR USE” (priority 2007, published 2008).
Counter-ions that a name gives are not always drawn.

Key:
[1] = test system: Angiogenesis in CAM model; test: Neovascularization on the CAM (chick chorioallantoic membrane model of angiogenesis); format: in vivo, chicken; conditions: 30 ug; unit assumed
Experimental: In vivo neovascularization was examined by the method previously described by Auerbach et al. (J. Dev. Biol. 41:391-394 (1974)). Ten-day old chicken embryos were purchased from Spafas, Inc. (Preston, Conn.) and were incubated at 37° C. with 55% relative humidity. In the dark, with the aid of a candling lamp, a small hole was punctured in the shell concealing the air sac with a hypodermic needle. A second hole was punctured in the shell on the broadside of the egg directly over an […] portion of the embryonic membrane, as observed during candling. An artificial air sac was created beneath the second hole by applying gentle vacuum to the first hole using a small rubber squeeze bulb. The vacuum caused the chorioallantoic membrane (CAM) to separate from the shell.
A window, approximately 1.0 cm^2, was cut in the shell over the dropped CAM with the use of a small crafts grinding wheel (Dremel, Division of Emerson Electric Company Racine, Wis.). The window allowed direct access to the underlying CAM.
A pro-angiogenic agent was added to induce new blood vessel branches on the CAM of 10-day old embryos. Filter disks of #1 filter paper (Whatman International, United Kingdom) were punched using a small puncher and were soaked in 3 mg/mL cortisone acetate (Sigma, St. Louis, Mo.) in a solution (95% ethanol and water). The disks were subsequently air dried under sterile conditions. The disks were then suspended in PBS (Phosphate Buffered Saline) and placed on growing CAMs. Filters treated with TP-H (TEMPOL-H) or TEMPOL and/or H2O2 or TP-H and/or bFGF or VEGF were placed on the first day of the 3-day incubation.
For inducing angiogenesis, sterile filter disks were saturated with bFGF (1 μg/ml) (Life Technologies, Gaithersburg, Md.) or other pro-angiogenesis factors and control disks were saturated with PBS without Calcium and Magnesium. […]
Using sterile forceps one filter/CAM was placed from the window. The window was sealed with Highland brand transparent tape.
After 24-48 hr, 10-25 ul of test agent was injected intravenously or added topically into the CAM membrane. Eight-Ten eggs/treatment group were used.
CAM tissue directly beneath filter disk was harvested from embryos treated 48 hours prior with compound or control. Tissues were washed three times with PBS. Sections were placed in a 35-mm petri dish (Nalge Nunc, Rochester, N.Y.) and examined under a SV6 stereomicroscope (Karl Zeiss, Thornwood, N.Y.) at 50× magnification.
CAM sections from Petri dish were examined using SV6 stereomicroscope (Karl Zeiss) at 50× magnification. Digital images of CAM sections from Petri dish were collected using a 3-CCD color video camera system (Toshiba America, New York, N.Y.). These images were analyzed using Image-Pro Plus software (Media Cybernetics, Silver Spring, Md.).
The number of branch points in blood vessels within the circular region superimposed to the area of a filter disk was counted for each section. After incubation at 37° C. with 55% relative humidity for 3 days, the CAM tissue directly beneath each filter disk was resected from control and treated CAM samples. Tissues were washed three times with PBS. Sections were placed in a 35-mm Petri dish (Nalge Nunc; Rochester, N.Y.) and were examined under a SV6 stereomicroscope (Karl Zeiss; Thornwood, N.Y.) at 50× magnification. Digital images of CAM sections adjacent to filters were collected using a 3-CCD color video camera system (Toshiba America; New York, N.Y.) and analyzed with the Image-Pro Plus software (Media Cybernetics; Silver Spring, Md.).
The number of vessel branch points contained in a circular region equal to the area of a filter disk was counted for each section. Percent inhibition data are expressed as the quotient of the experimental value minus the negative control value divided by the difference between the positive control value and the negative control value. […]

[2] = test system: Human neuroblastoma SKN-SH cells, resistant to doxorubicin; test: Chemoresistance: cancer cell viability (MTT) in presence or absence of doxorubicin; format: cell-based; conditions: compound 50 ug/mL, MTT
Text: A method for evaluating a compound's propensity to overcome cancer cell chemoresistance is described in “Caspase Inhibition Switches Doxorubicin-Induced Apoptosis To Senescence”, Abdelhadi Rebbaa, Xin Zheng, Pauline M Chou and Bernard L Mirkin, Oncogene (2003) 22, 2805-2811. Resistant human cancer cells to doxorubicin were selected by stepwise exposure to drug concentrations ranging from 10^−9 M-10^−6 M over 3 months. They were then subjected to treatment with the doxorubicin alone or in combination with hydroxylamine compounds 1-12, 16, 20, and 21 (Table 4). The cells were incubated with the drugs for 72 hours, and cell viability was measured by the MTT assay. Additionally, molecular pathways that might be associated with increased chemo-responsiveness with these compounds were investigated. p Cancer Cell Viability Data for certain hydroxylamines in the presence or absence of Doxorubicin is listed in Table 4.
A method for evaluating a compound's propensity to overcome cancer cell chemoresistance is described in “Caspase Inhibition Switches Doxorubicin-Induced Apoptosis To Senescence”, Abdelhadi Rebbaa, Xin Zheng, Pauline M Chou and Bernard L Mirkin, Oncogene (2003) 22, 2805-2811. Human neuroblastoma SKN-SH cells (ATCC Cat. No. HTB-11) were cultured in Dulbecco's Modified Eagles Medium (DMEM; Gibco, Grand Island, N.Y.) supplemented with 10% fetal bovine serum (FBS; Sigma-Aldrich, St. Louis, Mo.) at 37° C. in a 95% Air/5% CO2 atmosphere. Resistant human cancer cells to doxorubicin were selected by stepwise exposure to drug concentrations ranging from 10^−9M-10^−6M over 3 months. They were then subjected to treatment with the doxorubicin alone or in combination with hydroxylamine compounds. The cells were incubated with the drugs for 72 hours, and cell viability was measured by the MTT assay. This consists of adding 10 μl/well of MTT (5 mg/ml solution) and incubation for 4 h at 37° C. The precipitate formed is then solubilized by addition of 100 μl of HCL 0.5 N/Isopropanol and incubation for 15 hours at 37° C. The optical density is measured at 570 nm and cell survival is estimated by comparison to untreated cells. Each point represents 4 wells data represent average ± SE. Additionally, molecular pathways that might be associated with increased chemo-responsiveness with these compounds were investigated.
Cytotoxic activity of doxorubicin and hydroxylamine analogs were quantitatively determined by a colorimetric assay utilizing 3-(4,5-dimethyl-2-thiazolyl) 2,5-diphenyl tetrazolium bromide (MTT; Sigma-Aldrich, St. Louis, Mo.). Briefly, cells were seeded at 10^4 cells/well in 96-well plates and maintained in culture for 24 hours at 37° C. in DMEM supplemented with 10% FBS. Drugs were added to designated wells and cells were incubated for […], following which MTT (10 μL of 5 mg/ml solution) was added to each 100 μl well and incubated for 4 hours at 37° C. The cells were solubilized by incubation with 100 μl of HCl 0.5N in isopropanol for 15 hours at 37° C. The optical density of this solution was measured at 570 nm and the percentage of viable cells estimated by comparison with untreated control cells.

Structure (SMILES)	melting point	Percent inhibition of angiogenesis in CAM model at 30 ug [1]	Mean OD (×10^−3), cancer cell viability ([2]; Dox. 10^−6 M present (+))	Mean OD (×10^−3), cancer cell viability ([2]; Dox. absent (−))
CC1(C)CC(O)C(Br)C(C)(C)N1O (centres unmarked) [Compound 9, 3-Bromo-2,2,6,6-tetramethyl-piperidine-1,4-diol]	138.5 °C (dec.)	82.2%	234.75 ×10^−3	509.00 ×10^−3
Cc1nsnc1OCC1=CC(C)(C)N(O)C1(C)C (as salt: hydrochloride) [Compound 47, 3-((1-hydroxy-2,5-dihydro-2,2,5,5-tetramethyl-1H-pyrrol-3-yl)methoxy)-4-methyl-1,2,5-thiadiazole]	173.2 °C			
CC1(C)C=C(COc2ccccc2N2CCOCC2)C(C)(C)N1O.Cl	155.7 °C (dec.)			
CC1(C)CC(Oc2nc3ccc(F)cc3s2)CC(C)(C)N1O.Cl	178 °C (dec.)			
CC1(C)COC(=O)C(C)(C)N1O.Cl [Compound 39, N-Hydroxyl-3,3,5,5-tetramethylmorpholin-2-one]	145 °C (dec.)	96.9%	311.00 ×10^−3	1201.00 ×10^−3
CC1(C)CC(Oc2nsnc2C#N)CC(C)(C)N1O (as salt: hydrochloride) [Compound 45]	179.2 °C (dec.)			
CCCCC1(O)CC(C)(C)N(O)C(C)(C)C1.Cl [Compound 41, 1,4-dihydroxy-4-n-butyl-2,2,6,6-tetramethylpiperidine]	187 °C (dec.)	84.4%	261.25 ×10^−3	824.75 ×10^−3
CC1(C)c2ccc(Br)cc2C(C)(C)N1O.Cl	214.1 °C			
CC1(C)CC(Oc2nsnc2N2CCN(C(=O)c3ccco3)CC2)CC(C)(C)N1O.Cl	198.1 °C (dec.)			
CC1(C)CC(O)(c2ccc(F)cc2)CC(C)(C)N1O.Cl [Compound 57, 4-(4-Fluorophenyl)-1-hydroxyl-2,2,6,6-tetramethylpiperidin-4-ol]	220 °C (dec.)	100%	426.25 ×10^−3	1078.50 ×10^−3
CC1(C)C=C(CO)C(C)(C)N1O (as salt: chloride) [Compound 8]	141.9 °C (dec.)			
CC1(C)CC(O)C(C)(C)N1O (centres unmarked) (as salt: salt) [Compound 7, 2,2,5,5-Tetramethyl-Pyrrolidine-1,3-diol]	155.5 °C (dec.)			
CC1(C)CC(C#N)CC(C)(C)N1O.Cl [Compound 12, 4-cyano-1-hydroxyl-2,2,6,6-tetramethylpiperidine]	186 °C (dec.)		287.25 ×10^−3	539.25 ×10^−3
CC1(C)C=C(CO)C(C)(C)N1O [Compound 8]		88%	197.25 ×10^−3	392.50 ×10^−3
CC1(C)CC(Oc2nsnc2N2CCSCC2)CC(C)(C)N1O.Cl [Compound 55, 4-(4-(1-hydroxy-2,2,6,6-tetramethylpiperidin-4-yloxy)-1,2,5-thiadiazol-3-yl)thiomorpholine]	218 °C (dec.)		285.75 ×10^−3	1037.25 ×10^−3
COc1ccc(C2=C(c3cc(OC)c(OC)c(OC)c3)C(C)(C)N(O)C2(C)C)cc1C=O [Compound 46, 5-(2,5,-dihydro-4-(3,4,5-trimethoxyphenyl)-1-hydroxy-2,2,5,5-tetramethyl-1H-pyrrol-3-yl)-2-methoxybenzaldehyde]		45.1%	32.75 ×10^−3	79.00 ×10^−3
CC1(C)CC(Oc2nc3ccccc3s2)CC(C)(C)N1O.Cl	160 °C (dec.)			
CC(C)c1nsnc1OCC1=CC(C)(C)N(O)C1(C)C (as salt: hydrochloride) [Compound 51]	155.7 °C			

Continued, in another order:

melting point	Structure (SMILES)	Percent inhibition of angiogenesis in CAM model at 30 ug [1]	Mean OD (×10^−3), cancer cell viability ([2]; Dox. 10^−6 M present (+))	Mean OD (×10^−3), cancer cell viability ([2]; Dox. absent (−))
183 °C (dec.)	CC1(C)CC(Nc2nc3ccccc3s2)CC(C)(C)N1O.Cl			
181 °C	COc1cc(CNC2CC(C)(C)N(O)C(C)(C)C2)cc(OC)c1OC.Cl.Cl [Compound 58, N-(3,4,5-trimethoxybenzyl)-1-hydroxy-2,2,6,6-tetramethylpiperidin-4-amine]	39%	291.50 ×10^−3	1207.00 ×10^−3
164.7 °C (dec.)	CC1(C)CC(NC(=O)CCCCC2CCSS2)CC(C)(C)N1O (centres unmarked) (as salt: hydrochloride) [Compound 49, 5-(1,2-dithialan-3-yl)-N-(1-hydroxy-2,2,6,6-tetramethylpiperidin-4-yl)pentanamide]			
197 °C (dec.)	CC(C)(C)OC(=O)c1nsnc1OC1CC(C)(C)N(O)C(C)(C)C1.Cl			
166.9 °C (dec.)	COc1cc2c(cc1OC)CN(c1nsnc1OC1CC(C)(C)N(O)C(C)(C)C1)CC2.Cl			
220 °C (dec.)	COc1ccc2nc(NC3CC(C)(C)N(O)C(C)(C)C3)sc2c1.Cl			
174.9 °C (dec.)	Cc1c(C)c2c(c(C)c1O)CCC(C)(C(=O)NC1CC(C)(C)N(O)C(C)(C)C1)O2.Cl (centres unmarked)			
209.1 °C (dec.)	CC1(C)CC(Oc2nsnc2C(=O)O)CC(C)(C)N1O.Cl			
178.3 °C (dec.)	CC1(C)CC(NS(C)(=O)=O)CC(C)(C)N1O (as salt: salt) [Compound 10, 1-hydroxy-4-methanesulfonamido-2,2,6,6-tetramethylpiperidine]			
